Reference: BindingDB's records for doi:10.7270/Q2H993J6 (Pcmd, 2008)

Target: Coagulation factor XI (Homo sapiens, UniProt P03951)
Test: factor XIa inhibitor concentration-response – biochemical, hits from 1536-well screen, dose response (AID 846)
Conditions: pH 7.4; 23 °C

Coagulation factor XI, sequence (P03951 19-387 limits assumed): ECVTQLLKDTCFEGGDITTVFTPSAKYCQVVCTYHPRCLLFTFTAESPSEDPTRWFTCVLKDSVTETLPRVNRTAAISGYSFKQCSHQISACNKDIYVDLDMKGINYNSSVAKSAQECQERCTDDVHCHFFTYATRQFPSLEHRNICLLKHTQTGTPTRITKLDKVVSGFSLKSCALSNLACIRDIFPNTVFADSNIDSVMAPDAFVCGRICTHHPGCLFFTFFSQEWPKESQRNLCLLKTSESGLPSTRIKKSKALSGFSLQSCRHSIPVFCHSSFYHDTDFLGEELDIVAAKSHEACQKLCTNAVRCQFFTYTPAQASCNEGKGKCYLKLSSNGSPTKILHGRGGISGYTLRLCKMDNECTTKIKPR
Coagulation factor XI, sequence (P03951 388-625 limits assumed): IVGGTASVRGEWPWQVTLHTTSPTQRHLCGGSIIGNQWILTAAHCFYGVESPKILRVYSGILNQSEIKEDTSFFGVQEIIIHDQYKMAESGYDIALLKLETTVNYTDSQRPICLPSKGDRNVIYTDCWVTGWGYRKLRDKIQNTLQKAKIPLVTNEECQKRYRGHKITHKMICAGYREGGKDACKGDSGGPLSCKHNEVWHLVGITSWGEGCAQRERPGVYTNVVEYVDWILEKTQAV

Structure (SMILES)	IC50
Cc1ccc2c(CN3CCN(Cc4ccc5c(c4)OCO5)CC3)cc(=O)oc2c1C [4-[[4-(1,3-benzodioxol-5-ylmethyl)-1-piperazinyl]methyl]-7,8-dimethyl-1-benzopyran-2-one]	> 50 µM
CCCOC(=O)c1ccc(Oc2c[nH]nc2-c2ccc(OCC(=O)NN)cc2O)cc1 [4-[[(3E)-3-[4-(2-hydrazinyl-2-oxoethoxy)-6-oxo-1-cyclohexa-2,4-dienylidene]-1,2-dihydropyrazol-4-yl]oxy]benzoic acid propyl ester]	> 50 µM
CCCN(CCC)S(=O)(=O)c1ccc(C(=O)NNc2nc(-c3ccccc3)c3cc(Br)ccc3n2)cc1 [4-[[(6-bromo-4-phenylquinazolin-2-yl)amino]carbamoyl]-N,N-dipropylbenzenesulfonamide]	> 50 µM
O=C(Nc1nc(-c2cccs2)cs1)c1ccc(Cl)cc1 [4-chloro-N-(4-thiophen-2-yl-2-thiazolyl)benzamide]	17.3 µM
O=C(Oc1ccc(=O)n(-c2ccccc2)n1)c1ccc(Cl)cc1 [4-chlorobenzoic acid (6-oxo-1-phenyl-3-pyridazinyl) ester]	5.6 µM
CCOC(=O)Cc1csc(NC(=O)CC(C)(C)CC(=O)O)n1 [5-[[4-(2-ethoxy-2-oxidanylidene-ethyl)-1,3-thiazol-2-yl]amino]-3,3-dimethyl-5-oxidanylidene-pentanoic acid]	> 50 µM
O=C(NNC(=O)c1cccs1)c1ccc(Br)o1 [5-bromo-N'-(thiophene-2-carbonyl)furan-2-carbohydrazide]	8.51 µM
CC1=CCC2C(=O)N(C(C)c3ccccc3)C(=O)C2C1 (configuration not stated) [5-methyl-2-(1-phenylethyl)-3a,4,7,7a-tetrahydro-1H-isoindole-1,3(2H)-dione]	> 50 µM
C=CCOC(=O)C1C(C)=Nc2[nH]c(=O)[nH]c(=O)c2C1c1ccccc1 (configuration not stated) [7-methyl-2,4-dioxo-5-phenyl-5,8-dihydro-1H-pyrido[2,3-d]pyrimidine-6-carboxylic acid prop-2-enyl ester]	> 50 µM
CCSc1nnc(NC(=O)[C@H](C)N2C(=O)C3CC=CCC3C2=O)s1 (stereo partly drawn) [(2S)-2-(1,3-dioxo-3a,4,7,7a-tetrahydroisoindol-2-yl)-N-[5-(ethylthio)-1,3,4-thiadiazol-2-yl]propanamide]	> 50 µM
O=S(=O)([N-]c1nc2ccccc2nc1-[n+]1ccn(Cc2ccccc2)c1)c1ccc(Cl)cc1 [(4-chlorophenyl)sulfonyl-[3-[3-(phenylmethyl)imidazol-3-ium-1-yl]quinoxalin-2-yl]azanide]	> 50 µM
Oc1ccc(CN=Nc2nc(-c3cccnc3)nc3ccccc23)c(O)c1 [(4E)-3-hydroxy-4-[[2-(2-pyridin-3-ylquinazolin-4-yl)hydrazinyl]methylidene]cyclohexa-2,5-dien-1-one]	> 50 µM
Cn1cccc1/C=C1\C(=O)NC(=O)N(Cc2ccccc2Cl)C1=O [(5E)-1-[(2-chlorophenyl)methyl]-5-[(1-methylpyrrol-2-yl)methylidene]-1,3-diazinane-2,4,6-trione]	> 50 µM
O=C(Oc1ccc(=O)n(-c2ccccc2)n1)c1cccc(Cl)c1 [(6-oxidanylidene-1-phenyl-pyridazin-3-yl) 3-chloranylbenzoate]	1.71 µM
CC/C=C/C(=O)N1CC2(CC(c3cccc(NC(=O)CCCCC)c3)=NO2)C[C@H]1C(N)=O (stereo partly drawn) [(8S)-3-[3-(hexanoylamino)phenyl]-7-[(E)-pent-2-enoyl]-1-oxa-2,7-diazaspiro[4.4]non-2-ene-8-carboxamide]	9.23 µM
N#C/C(=C\c1cccnc1)c1nc2ccccc2[nH]1 [(E)-2-(1H-Benzoimidazol-2-yl)-3-pyridin-3-yl-acrylonitrile]	> 50 µM
CCN(C(=O)COC(=O)/C=C/c1c(C)nn(-c2ccccc2)c1C)C1CCS(=O)(=O)C1 (configuration not stated) [(E)-3-(3,5-dimethyl-1-phenyl-4-pyrazolyl)-2-propenoic acid [2-[(1,1-dioxo-3-thiolanyl)-ethylamino]-2-oxoethyl] ester]	> 50 µM
CC(=O)c1ccc(NC(=O)C(Cl)=Cc2ccccc2)cc1 [(Z)-N-(4-acetylphenyl)-2-chloro-3-phenyl-2-propenamide]	> 50 µM
CC(Cc1ccccc1)=NNC(=O)CNC(=O)C=Cc1ccccc1 [(Z)-N-[2-oxo-2-[2-(1-phenylpropan-2-ylidene)hydrazinyl]ethyl]-3-phenyl-2-propenamide]	> 50 µM
O=C1c2ccccc2C(=O)N1OS(=O)(=O)c1ccccc1 [Benzenesulfonic acid 1,3-dioxo-1,3-dihydro-isoindol-2-yl ester]	1.4 µM
COc1ccc(OC)c(S(=O)(=O)N2CCCC(C)C2)c1 (configuration not stated) [MLS000035543]	> 50 µM
COC(=O)c1[nH]c2cc(OC)ccc2c1NC(=O)CCN1CCCCC1 [MLS000041334]	> 50 µM
O=C(Cc1cccs1)Nc1nnc(CCc2ccccc2)s1 [MLS000064221]	> 50 µM
FC(F)C(F)(F)C(F)(F)C(F)(F)c1cc(-c2ccccc2)n[nH]1 [MLS000106686]	> 50 µM

Structure (SMILES)	IC50
C/C=C(\C)C(=O)OC1c2c(ccc3ccc(=O)oc23)OC(C)(C)C1OC(C)=O (configuration not stated) [MLS000121833]	> 50 µM
CCOC(=O)c1sc(NC(=O)CSC(=S)N2CCN(C)CC2)nc1C [MLS000332299]	> 50 µM
O=C(Oc1ccc2c(=O)c(Cl)coc2c1)c1cccnc1 [MLS000523505]	> 50 µM
CCOC(=O)CSc1nnc(-c2ccccc2)o1 [MLS000526656]	> 50 µM
O=C1NN(c2ccccc2)C(=O)/C1=C\c1cccc(OC(=O)c2cccs2)c1 [MLS000534153]	> 50 µM
CSc1nc2cc3c(cc2n1C(=O)c1ccc(C)cc1)OCCO3 [MLS000544330]	2.22 µM
CN1C(=O)C(=NOC(=O)c2ccccc2)c2ccccc21 [MLS000556117]	25.9 µM
CCOC(=O)Cc1csc(NC(=O)c2sc3nc4ccc(CC)cc4cc3c2N)n1 [MLS000556627]	> 50 µM
CCCCCC(=O)Nc1cccc([C+]2CC3(CC(C(N)=O)N(C(=O)c4cc([N+](=O)[O-])cc([N+](=O)[O-])c4C)C3)O[N-]2)c1 (configuration not stated) [MLS000561980]	34.4 µM
Cc1cc(C)c(S(=O)(=O)ON2C(=O)c3ccccc3C2=O)cc1C [MLS000577081]	1.01 µM
Cc1ccc(S(=O)(=O)ON2C(=O)c3ccccc3C2=O)c(C)c1 [MLS000579570]	1.08 µM
CC(C)CNC(=O)Nc1ccc(F)c(Cl)c1 [MLS000679438]	> 50 µM
CCOC(=O)c1ccc(NC(=O)Nc2cccc(C)n2)cc1 [MLS000679527]	> 50 µM
NS(=O)(=O)c1ccc(CCNC(=O)Cc2ccccc2[N+](=O)[O-])cc1 [MLS000689902]	> 50 µM
COc1c(C)cc(C(=O)C2CCCN(S(=O)(=O)c3c(C)noc3C)C2)cc1C (configuration not stated) [MLS000693702]	> 50 µM
COc1cc2c(cc1/C=C/[N+](=O)[O-])OCO2 [MLS000706395]	> 50 µM
COc1cc([N+](=O)[O-])cc2sc(NC(C)=O)nc12 [MLS000708454]	> 50 µM
Cc1nc2cc(NC(=O)Nc3cccc(F)c3)ccc2n1C [MLS000708492]	> 50 µM
Cc1ccccc1C(=O)NC1CCSC1=O (configuration not stated) [MLS000709097]	> 50 µM
Cc1cc(C)cc(NC(=O)c2ccc([N+](=O)[O-])o2)c1 [MLS000710428]	> 50 µM
COc1ccc(S(=O)(=O)NCCOc2cccc3cccnc23)cc1OC [MLS000716779]	> 50 µM
CCOc1cccc2c1OC1(C)CC2NC(=O)N1Cc1ccccc1 (configuration not stated) [MLS000730538]	> 50 µM
COc1ccc(C=NNC(=O)CCn2cnc3ccccc32)cc1 [MLS000769034]	> 50 µM
